Assay [1] concerns EBP (zymostenol accumulation in EpiSC-derived OPCs). Description: GC/MS-based sterol profiling, zymostenol accumulation in OPCs. In kind it is cell-based, mouse. To be noted: Mus musculus, 24 h, read-out: Zymostenol GCMS EC50. A digest of the protocol: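 EpiSC-derived OPCs (100,000/well) were treated 24 h in N2B27 without growth factors. Sterols were TMS-derivatized and analysed by GC/MS full-scan EI, quantified against cholesterol-d7. Zymostenol was normalized to the level after 24 h with 100 nM positive control reference.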

A further assay has as its target human EBP (Homo sapiens (Human), UniProt Q15125). Nature of the assay: Competition binding assay (SPA, [3H]-Ifenprodil) to determine compound affinity to EBP. Conditions: [3H]-Ifenprodil 10 nM, HEK293 membrane overexpressing human EBP, Ki=IC50/(1+[L]/Kd); read-out: hEBP SPA Ki. A digest of the protocol: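 Membranes from HEK293 cells overexpressing human EBP, on SPA beads (0.3 mg beads, 5 µg membrane/well) in Tris/MgCl2/EDTA buffer pH 7.5 with 0.01% BSA and 0.1% DMSO, competed against [3H]-ifenprodil for 3 h to equilibrium. Compounds were tested at 1 µM single dose or 0.06 nM–5 µM; IC50 came from nonlinear fit, and Ki=IC50/(1+[L]/Kd).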

Another assay concerns EpiSC-derived OPCs. Description: In vitro phenotypic screening of OPCs (MBP staining, high-content imaging). It is filed as cell-based, mouse. To be noted: Mus musculus, 72 h, percentage of MBP+ oligodendrocytes, 3 days, 0.5 nM to 1000 nM; read-out: OPC EC50. The essentials: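 Readout: high-content imaging of MBP immunostaining around DAPI nuclei, giving percent oligodendrocytes, with EC50 from a Levenberg-Marquardt Hill fit. Epiblast stem cell-derived OPCs were plated on laminin at 150,000/cm^2 in growth-factor-free N2B27. They were exposed 3 days to an 8-point series, 0.5-1000 nM final, in two or more independent platings.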

Where [2] appears, read: EpiSC-derived OPCs, 24 hr treatment, 8 doses from 0.15 nM to 333 nM.

Like-named read-outs stand apart in the source and are kept apart here.

human EBP, sequence (Q15125 whole entry): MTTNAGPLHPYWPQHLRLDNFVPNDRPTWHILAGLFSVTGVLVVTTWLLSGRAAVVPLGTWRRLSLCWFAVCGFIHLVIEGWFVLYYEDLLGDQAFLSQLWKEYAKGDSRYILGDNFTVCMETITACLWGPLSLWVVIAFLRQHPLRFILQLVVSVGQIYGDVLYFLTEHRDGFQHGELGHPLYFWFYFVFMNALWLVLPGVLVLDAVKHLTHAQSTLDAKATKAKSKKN

As a reminder, the EC50 is the midpoint of the concentration-response curve. The Ki is a dissociation constant, usually derived from enzyme kinetics or from competition with a known ligand. For `CC(C)n1cc(C(F)(F)F)nc1[C@@H]1CC[C@H](N2CCC3(C2)CS(=O)(=O)C3)C1` (single isomer, unassigned) [20D*], the results for the EC50 (in assay [1] (setting [2]); with EpiSC-derived OPCs) were 38 nM and 260 nM, respectively. Besides, on human EBP, the Ki was determined as 98 nM.
In the case of `CCn1nc(-c2ccc(C(F)(F)F)nc2)nc1[C@H]1CC[C@H](N2CCC3(C2)CS(=O)(=O)C3)CC1` [36A*, 6-((1r,4r)-4-(1-Ethyl-3-(6-(trifluoromethyl)pyridin-3-yl)-1H-1,2,4-triazol-5-yl)cyclohexyl)-2-thia-6-azaspiro[3.4]octane 2,2-dioxide], the EC50 in assay [1] (setting [2]) turned out to be 8.6 nM; with EpiSC-derived OPCs, 73 nM. Besides, the Ki on human EBP was 40 nM.
As for `O=S1(=O)CC2(CCN([C@H]3CC[C@H](c4ccc(C(F)(F)F)nc4)CC3)C2)C1` [Compound 14A, 6-((1r,4r)-4-(6-(Trifluoromethyl)pyridin-3-yl)cyclohexyl)-2-thia-6-azaspiro[3.4]octane 2,2-dioxide], the concentration giving a half-maximal response (EC50) in assay [1] (setting [2]) stood at 11 nM; in the assay with EpiSC-derived OPCs it was 16 nM. In addition, the Ki at human EBP came to 35 nM.
The like results for `O=S1(=O)CC2(CCN([C@H]3CC[C@@H](c4ccc(C(F)(F)F)nc4)C3)C2)C1` (single isomer, unassigned) [Compound 11A, (Cis)-6-(3-(6-(Trifluoromethyl)pyridin-3-yl)cyclopentyl)-2-thia-6-azaspiro[3.4]octane 2,2-dioxide] were, in that order, 30 nM, 160 nM and 54 nM.
For `CC(C)n1nc(C2CC2)nc1[C@@H]1CC[C@H](N2CCC3(C2)CS(=O)(=O)C3)C1` (single isomer, unassigned) [18A*], the EC50 was 72 nM in assay [1] and 390 nM in the assay on EpiSC-derived OPCs. Also, the Ki at human EBP stood at 310 nM.
In the case of `Cn1nc(C(F)(F)F)cc1[C@H]1CC[C@H](N2CCC[C@@]3(CCS(=O)(=O)C3)C2)CC1` (single isomer, unassigned) [26A*], the results for the EC50 (in assay [1] (setting [2]); in the assay on EpiSC-derived OPCs) were 4 nM and 18 nM, respectively. In addition, on human EBP, the inhibition constant (Ki) is 33 nM.
Take `O=S1(=O)CC2(CCN([C@@H]3CCCN(c4ccc(C(F)(F)F)cc4)C3)C2)C1` (single isomer, unassigned) [22A*]: the EC50 in assay [1] (setting [2]) was determined as 2 nM; in the assay with EpiSC-derived OPCs, 9.5 nM. Moreover, the Ki at human EBP was 34 nM.
As to `O=S1(=O)CC2(CCN([C@H]3CC[C@@H](c4cc(C(F)(F)F)nn4C4CCC4)CC3)C2)C1` [Compound 23A, 6-((1s,4s)-4-(1-Cyclobutyl-3-(trifluoromethyl)-1H-pyrazol-5-yl)cyclohexyl)-2-thia-6-azaspiro[3.4]octane 2,2-dioxide], the figures for the EC50 (in assay [1] (setting [2]); with EpiSC-derived OPCs) were 31 nM and 100 nM, respectively. The Ki at human EBP worked out at 26 nM.
Consider `Cn1nc(C(F)(F)F)cc1[C@H]1CC[C@H](N2CCC[C@]3(CCS(=O)(=O)C3)C2)CC1` (single isomer, unassigned) [26B*], for which the EC50 in assay [1] (setting [2]) stood at 38 nM; in the assay on EpiSC-derived OPCs, 130 nM. At human EBP, the inhibition constant (Ki) was determined as 21 nM.
As to `O=S1(=O)CC2(CCN([C@H]3CO[C@H](c4ccc(C(F)(F)F)cc4)C3)C2)C1` (stereo in doubt) [19D*, 6-((3R,5S)-5-(4-(trifluoromethyl)phenyl)tetrahydrofuran-3-yl)-2-thia-6-azaspiro[3.4]octane 2,2-dioxide], the EC50 in assay [1] (setting [2]) amounted to 110 nM; with EpiSC-derived OPCs, 160 nM. Also, the inhibition constant Ki on human EBP amounted to 32 nM.
`Cc1cc(C(F)(F)F)cnc1N1CCC(N2CCC3(C2)CS(=O)(=O)C3)CC1` [Compound 7, 6-(1-(3-methyl-5-(trifluoromethyl)pyridin-2-yl)piperidin-4-yl)-2-thia-6-azaspiro[3.4]octane 2,2-dioxide]: the values for the EC50 (in assay [1] (setting [2]); in the assay on EpiSC-derived OPCs) were 34 nM and 21 nM, respectively. Moreover, at human EBP, the inhibition constant Ki came out at 10 nM.
With `O=S1(=O)CC2(CCN([C@H]3CCN(c4ccc(C(F)(F)F)nc4)C3)C2)C1` (single isomer, unassigned) [9A*], the EC50 in assay [1] (setting [2]) was found to be 10 nM; with EpiSC-derived OPCs, 86 nM. Besides, the Ki at human EBP was determined as 34 nM.
Turning to `CC(C)n1nc(-c2ccc(C(F)(F)F)nc2)nc1[C@H]1CC[C@H](N2CCC3(C2)CS(=O)(=O)C3)C1` (single isomer, unassigned) [17B*], the values for the EC50 (in assay [1] (setting [2]); in the assay on EpiSC-derived OPCs) were 4 nM and 22 nM, respectively. Also, the Ki at human EBP was 31 nM.
Regarding `Cn1nc(C(F)(F)F)cc1[C@H]1CC[C@@H](N2CCC3(CC2)CS(=O)(=O)C3)CC1` [Compound 25A, 7-((1s,4s)-4-(1-Methyl-3-(trifluoromethyl)-1H-pyrazol-5-yl)cyclohexyl)-2-thia-7-azaspiro[3.5]nonane 2,2-dioxide], the values for the EC50 (in assay [1] (setting [2]); in the assay on EpiSC-derived OPCs) were 43 nM and 100 nM, respectively. For the same compound, at human EBP, the Ki worked out at 110 nM.
As for `CC(C)n1nc(C2CC2)nc1[C@H]1CC[C@@H](N2CCC3(C2)CS(=O)(=O)C3)C1` (single isomer, unassigned) [18D*, 6-(3-(3-cyclopropyl-1-isopropyl-1H-1,2,4-triazol-5-yl)cyclopentyl)-2-thia-6-azaspiro[3.4]octane 2,2-dioxide], the EC50 amounted to 120 nM in assay [1] (setting [2]) and 430 nM in the assay on EpiSC-derived OPCs. Moreover, the Ki at human EBP worked out at 270 nM.
Consider `CC(C)n1nc(-c2cncc(C(F)(F)F)c2)cc1[C@H]1CC[C@@H](N2CCC3(C2)CS(=O)(=O)C3)C1` (single isomer, unassigned) [13A*], for which the 50% effective concentration (EC50) came out at 0.91 nM in assay [1] (setting [2]) and 1.3 nM in the assay with EpiSC-derived OPCs. Besides, at human EBP, the Ki was found to be 15 nM.
With `O=S1(=O)CC2(CCN([C@H]3CC[C@@H](c4cc(C(F)(F)F)nn4C4CC4)CC3)C2)C1` [Compound 12B, 6-((1s,4s)-4-(1-Cyclopropyl-3-(trifluoromethyl)-1H-pyrazol-5-yl)cyclohexyl)-2-thia-6-azaspiro[3.4]octane 2,2-dioxide], the EC50 in assay [1] (setting [2]) is 23 nM; with EpiSC-derived OPCs it was 240 nM. For the same compound, at human EBP, the inhibitory constant (Ki) was 29 nM.
As to `CC(C)n1nc(C(F)(F)F)cc1[C@H]1CC[C@H](N2CCC3(C2)CS(=O)(=O)C3)CC1` [Compound 8A, 6-((1r,4r)-4-(1-isopropyl-3-(trifluoromethyl)-1H-pyrazol-5-yl)cyclohexyl)-2-thia-6-azaspiro[3.4]octane 2,2-dioxide], the EC50 in assay [1] (setting [2]) worked out at 14 nM; in the assay with EpiSC-derived OPCs, 71 nM. The Ki at human EBP was found to be 16 nM.
Regarding `O=S1(=O)CC2(CCN([C@H]3CC[C@H](c4cc(C(F)(F)F)nn4C4CC4)CC3)CC2)C1` [Compound 40B, 7-((1s,4s)-4-(1-cyclopropyl-3-(trifluoromethyl)-1H-pyrazol-5-yl)cyclohexyl)-2-thia-7-azaspiro[3.5]nonane 2,2-dioxide], the values for the half-maximal effective concentration (EC50) (in assay [1] (setting [2]); in the assay on EpiSC-derived OPCs) were 17 nM and 71 nM, respectively. Further, the Ki on human EBP stood at 47 nM.
For `O=S1(=O)CC2(CCN(C3CCN(c4ccc(C(F)(F)F)nc4)CC3)C2)C1` [Compound 5, 6-(1-(6-(trifluoromethyl)pyridin-3-yl)piperidin-4-yl)-2-thia-6-azaspiro[3.4]octane 2,2-dioxide], the EC50 came out at 50 nM in assay [1] (setting [2]) and 190 nM with EpiSC-derived OPCs. The Ki on human EBP is 67 nM.
With `Cn1nc(C(F)(F)F)cc1[C@H]1CC[C@@H](N2CCC3(C2)CS(=O)(=O)C3)CC1` [Compound 2A, 6-((1s,4s)-4-(1-methyl-3-(trifluoromethyl)-1H-pyrazol-5-yl)cyclohexyl)-2-thia-6-azaspiro[3.4]octane 2,2-dioxide], the figures for the EC50 (in assay [1] (setting [2]); in the assay on EpiSC-derived OPCs) were 56 nM and 240 nM, respectively. For the same compound, the Ki on human EBP was 20 nM.
With `Cn1nc(C(F)(F)F)cc1[C@H]1CC[C@@H](N2CC[C@]3(CCS(=O)(=O)C3)C2)CC1` (single isomer, unassigned) [38A*], the EC50 was 49 nM in assay [1] (setting [2]) and 200 nM in the assay with EpiSC-derived OPCs. The Ki at human EBP was 27 nM.
The like results for `CCn1nc(-c2ccc(C(F)(F)F)nc2)nc1[C@H]1CC[C@@H](N2CCC3(C2)CS(=O)(=O)C3)CC1` [36B*, 6-((1s,4s)-4-(1-ethyl-3-(6-(trifluoromethyl)pyridin-3-yl)-1H-1,2,4-triazol-5-yl)cyclohexyl)-2-thia-6-azaspiro[3.4]octane 2,2-dioxide] were, in that order, 23 nM, 72 nM and 57 nM.
With `O=S1(=O)CC2(CCN(C3CCN(c4ccc(C(F)(F)F)cn4)CC3)C2)C1` [Compound 6, 6-(1-(5-(trifluoromethyl)pyridin-2-yl)piperidin-4-yl)-2-thia-6-azaspiro[3.4]octane 2,2-dioxide], the results for the EC50 (in assay [1] (setting [2]); with EpiSC-derived OPCs) were 14 nM and 39 nM, respectively. In addition, on human EBP, the Ki was found to be 37 nM.
The matching figures for `CC(C)n1nc(N2CC(F)(F)C2)cc1[C@H]1CC[C@H](N2CCC3(C2)CS(=O)(=O)C3)CC1` [Compound 35, 6-((1r,4r)-4-(3-(3,3-Difluoroazetidin-1-yl)-1-isopropyl-1H-pyrazol-5-yl)cyclohexyl)-2-thia-6-azaspiro[3.4]octane 2,2-dioxide]: 45 nM, 210 nM and 180 nM.
Regarding `CC(C)n1nc(-c2cncc(C(F)(F)F)c2)cc1[C@H]1CC[C@H](N2CCC3(C2)CS(=O)(=O)C3)C1` (single isomer, unassigned) [13D*], the EC50 stood at 1.2 nM in assay [1] (setting [2]) and 2.2 nM with EpiSC-derived OPCs. Further, the inhibition constant Ki on human EBP was determined as 71 nM.

These data come from patent publication US20240398781A1, “SPIROCYCLIC CYCLIC MODULATORS OF CHOLESTEROL BIOSYNTHESIS AND THEIR USE FOR PROMOTING REMYELINATION” (GENENTECH, INC., priority 2021, published 2024).
